Experimental data reported in patent US10168342B2, “Lipid probes and uses thereof” (THE SCRIPPS RESEARCH INSTITUTE, priority 2015, dated 2019).
Where two headings read alike, the source gives them in different places.

Experiments:
[1] = target: T1, AEA-DA lipid probe targets in Neuro2a cells (Mus musculus, UniProt Q60930); settings: Neuro2a cells, AEA-DA probe
T1 sequence (Q60930 1-295): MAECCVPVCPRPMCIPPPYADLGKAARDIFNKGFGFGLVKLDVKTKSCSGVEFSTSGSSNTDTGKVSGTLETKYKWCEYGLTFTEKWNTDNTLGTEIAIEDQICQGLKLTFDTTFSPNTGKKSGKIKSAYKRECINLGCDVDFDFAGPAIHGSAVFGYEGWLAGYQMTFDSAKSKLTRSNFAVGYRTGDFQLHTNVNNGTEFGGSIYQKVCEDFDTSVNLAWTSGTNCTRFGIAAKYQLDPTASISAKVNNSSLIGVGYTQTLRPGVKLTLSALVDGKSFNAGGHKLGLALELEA

[2] = target: T2, AEA-DA lipid probe targets in Neuro2a cells (Mus musculus, UniProt O08547)
T2 sequence (O08547 1-215): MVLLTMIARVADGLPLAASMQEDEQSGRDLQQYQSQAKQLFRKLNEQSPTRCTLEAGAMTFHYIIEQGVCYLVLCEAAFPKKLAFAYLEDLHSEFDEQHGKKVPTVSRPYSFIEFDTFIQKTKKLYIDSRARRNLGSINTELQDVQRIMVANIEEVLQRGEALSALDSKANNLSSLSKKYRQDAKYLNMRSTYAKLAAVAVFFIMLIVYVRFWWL

[3] = target: AEA-DA lipid probe targets in Neuro2a cells (Mus musculus, UniProt Q8BMS1)
[4] = target: AEA-DA lipid probe targets in Neuro2a cells (Mus musculus, UniProt P53994)
[5] = target: AEA-DA lipid probe targets in Neuro2a cells (Mus musculus, UniProt Q9Z0V8)
[6] = target: T3, AEA-DA lipid probe targets in Neuro2a cells (Mus musculus, UniProt P46638)
T3 sequence (P46638 1-218): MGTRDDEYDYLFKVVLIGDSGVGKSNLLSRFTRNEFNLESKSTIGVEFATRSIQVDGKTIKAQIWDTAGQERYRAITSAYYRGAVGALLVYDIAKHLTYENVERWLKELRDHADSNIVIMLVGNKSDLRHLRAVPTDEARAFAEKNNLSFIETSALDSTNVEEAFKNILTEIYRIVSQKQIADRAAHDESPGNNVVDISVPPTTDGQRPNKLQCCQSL

[7] = target: T4, AEA-DA lipid probe targets in Neuro2a cells (Mus musculus, UniProt Q99LR1)
T4 sequence (Q99LR1 1-398): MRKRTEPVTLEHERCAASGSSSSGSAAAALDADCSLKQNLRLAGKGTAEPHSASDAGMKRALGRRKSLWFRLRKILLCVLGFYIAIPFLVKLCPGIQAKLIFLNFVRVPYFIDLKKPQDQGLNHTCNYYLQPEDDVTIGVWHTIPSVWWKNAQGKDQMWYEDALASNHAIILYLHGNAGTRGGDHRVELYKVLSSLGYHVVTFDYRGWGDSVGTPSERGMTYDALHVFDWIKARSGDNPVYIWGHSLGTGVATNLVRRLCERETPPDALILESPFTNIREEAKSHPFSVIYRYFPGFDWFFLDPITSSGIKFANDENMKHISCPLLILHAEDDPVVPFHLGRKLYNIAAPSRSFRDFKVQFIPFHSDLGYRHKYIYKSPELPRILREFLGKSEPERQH

[8] = target: T5, AEA-DA lipid probe targets in Neuro2a cells (Mus musculus, UniProt Q8VDP6)
T5 sequence (Q8VDP6 1-213): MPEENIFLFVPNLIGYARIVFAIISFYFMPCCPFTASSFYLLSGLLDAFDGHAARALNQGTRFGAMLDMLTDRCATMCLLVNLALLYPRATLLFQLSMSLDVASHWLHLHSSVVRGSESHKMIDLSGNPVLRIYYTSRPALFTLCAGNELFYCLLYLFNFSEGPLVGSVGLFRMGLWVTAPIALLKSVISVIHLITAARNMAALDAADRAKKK

[9] = target: T6, AEA-DA lipid probe targets in Neuro2a cells (Mus musculus, UniProt Q9D379)
T6 sequence (Q9D379 1-455): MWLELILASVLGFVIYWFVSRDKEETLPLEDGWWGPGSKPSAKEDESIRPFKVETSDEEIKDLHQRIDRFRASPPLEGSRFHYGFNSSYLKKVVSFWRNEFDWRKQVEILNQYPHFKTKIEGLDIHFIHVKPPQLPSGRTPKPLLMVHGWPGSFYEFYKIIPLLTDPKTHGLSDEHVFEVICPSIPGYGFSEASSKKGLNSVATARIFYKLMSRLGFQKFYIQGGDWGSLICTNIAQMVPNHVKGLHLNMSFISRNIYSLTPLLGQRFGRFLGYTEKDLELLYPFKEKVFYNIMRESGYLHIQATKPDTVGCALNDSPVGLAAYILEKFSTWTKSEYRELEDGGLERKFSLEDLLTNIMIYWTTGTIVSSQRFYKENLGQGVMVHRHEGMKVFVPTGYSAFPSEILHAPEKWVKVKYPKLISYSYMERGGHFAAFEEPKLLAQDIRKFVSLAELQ

[10] = target: T7, AEA-DA lipid probe targets in Neuro2a cells (Mus musculus, UniProt Q8CHK3)
T7 sequence (Q8CHK3 1-473): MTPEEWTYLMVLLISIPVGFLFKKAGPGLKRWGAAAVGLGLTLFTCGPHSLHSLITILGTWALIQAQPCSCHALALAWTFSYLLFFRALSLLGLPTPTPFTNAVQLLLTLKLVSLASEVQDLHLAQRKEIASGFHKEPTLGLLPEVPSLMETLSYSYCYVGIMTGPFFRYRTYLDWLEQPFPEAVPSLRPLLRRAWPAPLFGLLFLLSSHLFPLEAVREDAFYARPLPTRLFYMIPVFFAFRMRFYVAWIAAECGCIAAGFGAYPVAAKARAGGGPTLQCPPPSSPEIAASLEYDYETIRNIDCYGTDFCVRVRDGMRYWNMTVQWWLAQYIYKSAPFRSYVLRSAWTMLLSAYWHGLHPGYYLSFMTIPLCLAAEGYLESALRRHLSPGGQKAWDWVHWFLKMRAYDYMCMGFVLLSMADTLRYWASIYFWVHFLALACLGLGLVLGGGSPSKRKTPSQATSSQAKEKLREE

AEA-DA lipid probe targets in Neuro2a cells (Mus musculus, UniProt Q8BMS1), sequence (Q8BMS1 37-763): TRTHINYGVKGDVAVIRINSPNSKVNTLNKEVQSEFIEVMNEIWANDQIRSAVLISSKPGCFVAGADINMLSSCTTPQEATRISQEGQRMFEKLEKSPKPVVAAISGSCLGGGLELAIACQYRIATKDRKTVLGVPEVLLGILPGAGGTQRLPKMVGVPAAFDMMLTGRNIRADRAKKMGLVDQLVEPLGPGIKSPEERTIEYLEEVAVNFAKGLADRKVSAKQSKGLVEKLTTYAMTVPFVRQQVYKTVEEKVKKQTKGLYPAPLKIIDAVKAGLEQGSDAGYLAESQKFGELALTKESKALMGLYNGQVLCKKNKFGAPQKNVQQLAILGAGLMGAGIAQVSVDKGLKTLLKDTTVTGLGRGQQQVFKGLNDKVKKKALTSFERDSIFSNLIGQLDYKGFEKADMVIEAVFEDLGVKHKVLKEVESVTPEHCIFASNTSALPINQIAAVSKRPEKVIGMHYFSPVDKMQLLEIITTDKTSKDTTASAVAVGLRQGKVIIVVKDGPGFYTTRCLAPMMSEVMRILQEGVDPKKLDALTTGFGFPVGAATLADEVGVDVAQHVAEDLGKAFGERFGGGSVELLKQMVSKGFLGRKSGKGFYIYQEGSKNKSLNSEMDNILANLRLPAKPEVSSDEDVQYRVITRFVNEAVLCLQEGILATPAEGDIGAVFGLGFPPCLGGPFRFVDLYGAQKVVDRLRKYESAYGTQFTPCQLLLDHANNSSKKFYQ
AEA-DA lipid probe targets in Neuro2a cells (Mus musculus, UniProt P53994), sequence (P53994 whole entry): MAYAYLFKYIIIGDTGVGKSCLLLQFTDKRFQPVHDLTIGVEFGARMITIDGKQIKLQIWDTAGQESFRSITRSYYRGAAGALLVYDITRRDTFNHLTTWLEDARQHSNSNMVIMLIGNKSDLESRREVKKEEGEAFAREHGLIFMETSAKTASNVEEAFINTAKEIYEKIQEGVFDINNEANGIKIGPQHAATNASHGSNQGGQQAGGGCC
AEA-DA lipid probe targets in Neuro2a cells (Mus musculus, UniProt Q9Z0V8), sequence (Q9Z0V8 whole entry): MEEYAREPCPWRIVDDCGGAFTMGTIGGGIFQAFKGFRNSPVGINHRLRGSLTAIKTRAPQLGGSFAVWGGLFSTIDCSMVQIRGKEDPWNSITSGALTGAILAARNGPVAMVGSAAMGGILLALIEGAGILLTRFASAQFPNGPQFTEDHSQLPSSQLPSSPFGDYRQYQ

CCCCC/C=C\C/C=C\C/C=C\C/C=C\CCCC(=O)NCCO [AEA, anandamide, reference compound]
SILAC ratio, VDAC2 (P45880) ([1]; competitor 200 μM): 1.2
SILAC ratio, Sec22b ([2]; competitor 200 μM): 1.4
SILAC ratio, Hadha ([3]; competitor 200 μM): 2.3
SILAC ratio Rab2a ([4]; competitor 200 μM): 1.3
SILAC ratio, Timm17a ([5]; competitor 200 μM): 1.5
SILAC ratio, Rab11b ([6]; competitor 200 μM): 1.6
SILAC ratio, Abhd12 ([7]; competitor 200 μM): 1.8
SILAC ratio, Cdipt ([8]; competitor 200 μM): 1.8
SILAC ratio, Ephx1 ([9]; competitor 200 μM): 2.1

O=C(/C=C/c1cccnc1)NCCCCC1CCN(C(=O)c2ccccc2)CC1 [FK-866, reference compound]
SILAC ratio, VDAC2 (P45880) ([1]; competitor 25 μM): 1.0
SILAC ratio, Sec22b ([2]; competitor 25 μM): 1.2
SILAC ratio, Hadha ([3]; competitor 25 μM): 6.2
SILAC ratio Rab2a ([4]; competitor 25 μM): 1.2
SILAC ratio, Timm17a ([5]; competitor 25 μM): 1.1
SILAC ratio, Rab11b ([6]; competitor 25 μM): 1.2
SILAC ratio, Abhd12 ([7]; competitor 25 μM): 1.0
SILAC ratio, Cdipt ([8]; competitor 25 μM): 1.1
SILAC ratio, Ephx1 ([9]; competitor 25 μM): 1.4
SILAC ratio, Mboat7 ([10]; competitor 25 μM): 1.1

CN1CCN(C(=O)c2c(-c3ccccc3)c3cc([N+](=O)[O-])ccc3n2C)CC1 [KML110, (1-Methyl-5-nitro-3-phenyl-1H-indol-2-yl)(4-methylpiperazin-1-yl)methanone]
SILAC ratio, Sec22b ([2]; competitor 25 μM): 1.4
SILAC ratio, Hadha ([3]; competitor 25 μM): 2.0
SILAC ratio Rab2a ([4]; competitor 25 μM): 1.3
SILAC ratio, Timm17a ([5]; competitor 25 μM): 1.5
SILAC ratio, Rab11b ([6]; competitor 25 μM): 1.5
SILAC ratio, Abhd12 ([7]; competitor 25 μM): 1.2
SILAC ratio, Cdipt ([8]; competitor 25 μM): 0.9
SILAC ratio, Ephx1 ([9]; competitor 25 μM): 3.4
SILAC ratio, Mboat7 ([10]; competitor 25 μM): 1.7

CN1CCN(C(=O)c2[nH]c3ccc([N+](=O)[O-])cc3c2-c2ccccc2)CC1 [MJN228, (4-Methylpiperazin-1-yl)(5-nitro-3-phenyl-1H-indol-2-yl)methanone]
SILAC ratio, VDAC2 (P45880) ([1]; competitor 25 μM): 1.0
SILAC ratio, Sec22b ([2]; competitor 10 μM): 1.5
SILAC ratio, Sec22b ([2]; competitor 25 μM): 1.6
SILAC ratio, Sec22b ([2]; competitor 50 μM): 2.0
SILAC ratio, Sec22b ([2]; competitor 100 μM): 2.0
SILAC ratio, Hadha ([3]; competitor 10 μM): 1.4
SILAC ratio, Hadha ([3]; competitor 25 μM): 1.7
SILAC ratio, Hadha ([3]; competitor 50 μM): 2.0
SILAC ratio, Hadha ([3]; competitor 100 μM): 2.9
SILAC ratio Rab2a ([4]; competitor 10 μM): 1.4
SILAC ratio Rab2a ([4]; competitor 25 μM): 1.5
SILAC ratio Rab2a ([4]; competitor 50 μM): 1.6
SILAC ratio Rab2a ([4]; competitor 100 μM): 1.6
SILAC ratio, Timm17a ([5]; competitor 10 μM): 1.1
SILAC ratio, Timm17a ([5]; competitor 25 μM): 1.4
SILAC ratio, Timm17a ([5]; competitor 50 μM): 1.4
SILAC ratio, Timm17a ([5]; competitor 100 μM): 2.7
SILAC ratio, Rab11b ([6]; competitor 10 μM): 1.2
SILAC ratio, Rab11b ([6]; competitor 25 μM): 1.6
SILAC ratio, Rab11b ([6]; competitor 50 μM): 1.8
SILAC ratio, Rab11b ([6]; competitor 100 μM): 2.4
SILAC ratio, Abhd12 ([7]; competitor 10 μM): 1.2
SILAC ratio, Abhd12 ([7]; competitor 25 μM): 1.2
SILAC ratio, Abhd12 ([7]; competitor 50 μM): 1.2
SILAC ratio, Abhd12 ([7]; competitor 100 μM): 1.4
SILAC ratio, Cdipt ([8]; competitor 10 μM): 1.0
SILAC ratio, Cdipt ([8]; competitor 25 μM): 1.0
SILAC ratio, Cdipt ([8]; competitor 50 μM): 0.7
SILAC ratio, Cdipt ([8]; competitor 100 μM): 0.8
SILAC ratio, Ephx1 ([9]; competitor 10 μM): 2.5
SILAC ratio, Ephx1 ([9]; competitor 25 μM): 3.8
SILAC ratio, Ephx1 ([9]; competitor 50 μM): 8.2
SILAC ratio, Ephx1 ([9]; competitor 100 μM): 11.5
SILAC ratio, Mboat7 ([10]; competitor 10 μM): 1.2
SILAC ratio, Mboat7 ([10]; competitor 25 μM): 1.6
SILAC ratio, Mboat7 ([10]; competitor 50 μM): 1.9
SILAC ratio, Mboat7 ([10]; competitor 100 μM): 2.3

C=CCN(C)CCCCCCOc1ccc(C(=O)c2ccc(Br)cc2)c(F)c1 [Ro 48-8071, reference compound]
SILAC ratio, VDAC2 (P45880) ([1]; competitor 25 μM): 1.0
SILAC ratio, Sec22b ([2]; competitor 25 μM): 1.1
SILAC ratio, Hadha ([3]; competitor 25 μM): 1.0
SILAC ratio Rab2a ([4]; competitor 25 μM): 1.1
SILAC ratio, Timm17a ([5]; competitor 25 μM): 2.7
SILAC ratio, Rab11b ([6]; competitor 25 μM): 1.3
SILAC ratio, Abhd12 ([7]; competitor 25 μM): 1.0
SILAC ratio, Cdipt ([8]; competitor 25 μM): 0.7
SILAC ratio, Ephx1 ([9]; competitor 25 μM): 2.4
SILAC ratio, Mboat7 ([10]; competitor 25 μM): 1.1
